Test results: ChEMBL document CHEMBL1129198, “Synthesis and antibacterial activity of lipophilic carbapenems with anti-MRSA activity” (Bioorg Med Chem Lett, 1996)
In brackets after ≈: the same amount, converted by molar mass.

What was measured:
Enterococcus faecium = experiment: Antibacterial activity against vancomycin-resistant Enterococcus faecium 628016.; type: functional
Enterococcus faecalis = experiment: Antibacterial activity against vancomycin-sensitive Enterococcus faecalis 683026.; type: functional
Staphylococcus aureus [1] = experiment: Antibacterial activity against methicillin-resistant Staphylococcus aureus 601053.; type: functional
Staphylococcus aureus [2] = experiment: Antibacterial activity against methicillin-resistant Staphylococcus aureus 607004.; type: functional
Staphylococcus aureus [3] = experiment: Antibacterial activity against methicillin-sensitive Staphylococcus aureus 601055.; type: functional
Staphylococcus aureus [4] = experiment: Antibacterial activity against methicillin-sensitive Staphylococcus aureus 601055.(grown in the presence of blood); type: functional
Streptococcus pneumoniae = experiment: Antibacterial activity against penicillin-resistant Streptococcus pneumoniae 671319; type: functional
[5] = system: Staphylococcus haemolyticus; experiment: Antibacterial activity against methicillin-resistant Staphylococcus haemolyticus 601117; type: functional
[6] = Compound was tested for its binding affinity against PBP2' receptor in Staphylococcus aureus.
[7] = In vitro binding affinity towards PBP2'' of Staphylococcus aureus using [14C]benzylpenicillin as radioligand
Staphylococcus aureus [8] = experiment: Compound was tested for its binding affinity against PBP2'' receptor in Staphylococcus aureus. Values taken from literature.; type: functional

C[C@@H](O)[C@H]1C(=O)N2C(C(=O)O)=C(CSc3ccc4c(c3)CCC4=O)[C@H](C)[C@H]12
MIC (Enterococcus faecium): 0.5 mg/L (≈ 1.29 µM) | MIC (Enterococcus faecalis): 1 mg/L (≈ 2.58 µM) | MIC (Staphylococcus aureus [1]): 0.5 mg/L (≈ 1.29 µM) | MIC (Staphylococcus aureus [2]): 2 mg/L (≈ 5.16 µM) | MIC (Staphylococcus aureus [3]): 0.016 mg/L (≈ 0.0413 µM) | MIC (Staphylococcus aureus [4]): 0.008 mg/L | MIC (Streptococcus pneumoniae): 0.03 mg/L (≈ 0.0774 µM) | MIC [5]: 2 mg/L (≈ 5.16 µM)

C[C@@H](O)[C@H]1C(=O)N2C(C(=O)O)=C(COc3cccc4c3CCCC4=O)[C@H](C)[C@H]12
MIC (Enterococcus faecium): 2 mg/L (≈ 5.19 µM) | MIC (Enterococcus faecalis): 2 mg/L (≈ 5.19 µM) | MIC (Staphylococcus aureus [1]): 0.25 mg/L (≈ 0.649 µM) | MIC (Staphylococcus aureus [2]): 2 mg/L (≈ 5.19 µM) | MIC (Staphylococcus aureus [3]): 0.016 mg/L (≈ 0.0415 µM) | MIC (Staphylococcus aureus [4]): 0.008 mg/L | MIC (Streptococcus pneumoniae): 0.06 mg/L (≈ 0.156 µM) | MIC [5]: 4 mg/L (≈ 10.4 µM)

C[C@@H](O)[C@H]1C(=O)N2C(C(=O)O)=C(COc3cccc4c3C/C(=C\c3cccs3)C4=O)[C@H](C)[C@H]12
MIC (Enterococcus faecium): 4 mg/L (≈ 8.59 µM) | MIC (Enterococcus faecalis): 2 mg/L (≈ 4.3 µM) | MIC (Staphylococcus aureus [1]): 0.25 mg/L (≈ 0.537 µM) | MIC (Staphylococcus aureus [2]): 2 mg/L (≈ 4.3 µM) | MIC (Staphylococcus aureus [3]): 0.008 mg/L (≈ 0.0172 µM) | MIC (Staphylococcus aureus [4]): 0.008 mg/L | MIC (Streptococcus pneumoniae): 0.03 mg/L (≈ 0.0644 µM) | MIC [5]: 0.5 mg/L (≈ 1.07 µM)

C[C@@H](O)[C@H]1C(=O)N2C(C(=O)O)=C(COc3ccc4c(c3)CCC4)[C@H](C)[C@H]12
MIC (Enterococcus faecium): 32 mg/L (≈ 89.5 µM) | MIC (Enterococcus faecalis): 64 mg/L (≈ 179 µM) | MIC (Staphylococcus aureus [1]): 1 mg/L (≈ 2.8 µM) | MIC (Staphylococcus aureus [2]): 16 mg/L (≈ 44.8 µM) | MIC (Staphylococcus aureus [3]): 0.03 mg/L (≈ 0.0839 µM) | MIC (Staphylococcus aureus [4]): 8 mg/L | MIC (Streptococcus pneumoniae): 1 mg/L (≈ 2.8 µM) | MIC [5]: 16 mg/L (≈ 44.8 µM)

C[C@@H](O)[C@H]1C(=O)N2C(C(=O)O)=C(Sc3ccc4ccccc4c3)[C@H](C)[C@H]12
MIC (Enterococcus faecium): 8 mg/L (≈ 21.7 µM) | MIC (Enterococcus faecalis): 16 mg/L (≈ 43.3 µM) | MIC (Staphylococcus aureus [1]): 1 mg/L (≈ 2.71 µM) | MIC (Staphylococcus aureus [2]): 8 mg/L (≈ 21.7 µM) | MIC (Staphylococcus aureus [3]): 0.03 mg/L (≈ 0.0812 µM) | MIC (Staphylococcus aureus [4]): 0.03 mg/L | MIC (Streptococcus pneumoniae): 2 mg/L (≈ 5.41 µM) | MIC [5]: 8 mg/L (≈ 21.7 µM)

C[C@@H](O)[C@H]1C(=O)N2C(C(=O)O)=C(Sc3ccc(C#N)c4ccccc34)[C@H](C)[C@H]12
MIC (Enterococcus faecium): 2 mg/L (≈ 5.07 µM) | MIC (Enterococcus faecalis): 8 mg/L (≈ 20.3 µM) | MIC (Staphylococcus aureus [1]): 0.5 mg/L (≈ 1.27 µM) | MIC (Staphylococcus aureus [2]): 2 mg/L (≈ 5.07 µM) | MIC (Staphylococcus aureus [3]): 0.016 mg/L (≈ 0.0406 µM) | MIC (Staphylococcus aureus [4]): 0.016 mg/L | MIC (Streptococcus pneumoniae): 0.25 mg/L (≈ 0.634 µM) | MIC [5]: 1 mg/L (≈ 2.54 µM)

C[C@@H](O)[C@H]1C(=O)N2C(C(=O)O)=C(COc3cccc4c3CCC4=O)[C@H](C)[C@H]12
MIC (Enterococcus faecium): 2 mg/L (≈ 5.39 µM) | MIC (Enterococcus faecalis): 1 mg/L (≈ 2.69 µM) | MIC (Staphylococcus aureus [1]): 0.12 mg/L (≈ 0.323 µM) | MIC (Staphylococcus aureus [2]): 4 mg/L (≈ 10.8 µM) | MIC (Staphylococcus aureus [3]): 0.016 mg/L (≈ 0.0431 µM) | MIC (Staphylococcus aureus [4]): 0.008 mg/L | MIC (Streptococcus pneumoniae): 0.06 mg/L (≈ 0.162 µM) | MIC [5]: 8 mg/L (≈ 21.5 µM)

C[C@@H](O)[C@H]1C(=O)N2C(C(=O)[O-])=C(COc3ccc4nc(C[n+]5ccccc5)sc4c3)[C@H](C)[C@H]12
MIC (Enterococcus faecium): 2 mg/L (≈ 4.3 µM) | MIC (Enterococcus faecalis): 0.5 mg/L (≈ 1.07 µM) | MIC (Staphylococcus aureus [1]): 0.25 mg/L (≈ 0.537 µM) | MIC (Staphylococcus aureus [2]): 4 mg/L (≈ 8.59 µM) | MIC (Staphylococcus aureus [3]): 0.03 mg/L (≈ 0.0644 µM) | MIC (Staphylococcus aureus [4]): 0.016 mg/L | MIC (Streptococcus pneumoniae): 0.06 mg/L (≈ 0.129 µM) | MIC [5]: 2 mg/L (≈ 4.3 µM)

C[C@@H](O)[C@H]1C(=O)N2C(C(=O)[O-])=C(COc3ccc4cc(Cn5cc[n+](C)c5)ccc4c3)[C@H](C)[C@H]12
MIC (Enterococcus faecium): 2 mg/L (≈ 4.33 µM) | MIC (Enterococcus faecalis): 2 mg/L (≈ 4.33 µM) | MIC (Staphylococcus aureus [1]): 0.5 mg/L (≈ 1.08 µM) | MIC (Staphylococcus aureus [2]): 1 mg/L (≈ 2.17 µM) | MIC (Staphylococcus aureus [3]): 0.016 mg/L (≈ 0.0347 µM) | MIC (Staphylococcus aureus [4]): 0.016 mg/L | MIC (Streptococcus pneumoniae): 0.06 mg/L (≈ 0.13 µM) | MIC [5]: 2 mg/L (≈ 4.33 µM)

C[C@@H](O)[C@H]1C(=O)N2C(C(=O)O)=C(CSc3ccc4c(c3)OCCC4=O)[C@H](C)[C@H]12
MIC (Enterococcus faecium): 0.5 mg/L (≈ 1.24 µM) | MIC (Enterococcus faecalis): 1 mg/L (≈ 2.48 µM) | MIC (Staphylococcus aureus [1]): 1 mg/L (≈ 2.48 µM) | MIC (Staphylococcus aureus [2]): 1 mg/L (≈ 2.48 µM) | MIC (Staphylococcus aureus [3]): 0.03 mg/L (≈ 0.0744 µM) | MIC (Staphylococcus aureus [4]): 0.008 mg/L | MIC (Streptococcus pneumoniae): 0.03 mg/L (≈ 0.0744 µM) | MIC [5]: 1 mg/L (≈ 2.48 µM)

C[C@@H](O)[C@H]1C(=O)N2C(C(=O)O)=C(COc3ccc4cc(C(N)=O)ccc4c3)[C@H](C)[C@H]12
MIC (Enterococcus faecium): 1 mg/L (≈ 2.44 µM) | MIC (Enterococcus faecalis): 2 mg/L (≈ 4.87 µM) | IC50 [6]: > 16 mg/L | IC50 [7]: > 16 mg/L | IC50 (Staphylococcus aureus [8]): 8 mg/L (≈ 19.5 µM) | MIC (Staphylococcus aureus [1]): 0.25 mg/L (≈ 0.609 µM) | MIC (Staphylococcus aureus [2]): 0.5 mg/L (≈ 1.22 µM) | MIC (Staphylococcus aureus [3]): 0.008 mg/L (≈ 0.0195 µM) | MIC (Staphylococcus aureus [4]): 0.016 mg/L | MIC (Streptococcus pneumoniae): 0.03 mg/L (≈ 0.0731 µM) | MIC [5]: 2 mg/L (≈ 4.87 µM)

C[C@@H](O)[C@H]1C(=O)N2C(C(=O)O)=C(SCCc3ccc4ccccc4c3)[C@H](C)[C@H]12
MIC (Enterococcus faecium): 16 mg/L (≈ 40.3 µM) | MIC (Enterococcus faecalis): 8 mg/L (≈ 20.1 µM) | MIC (Staphylococcus aureus [1]): 8 mg/L (≈ 20.1 µM) | MIC (Staphylococcus aureus [2]): 32 mg/L (≈ 80.5 µM) | MIC (Staphylococcus aureus [3]): 0.13 mg/L (≈ 0.327 µM) | MIC (Staphylococcus aureus [4]): 0.13 mg/L | MIC (Streptococcus pneumoniae): 0.5 mg/L (≈ 1.26 µM) | MIC [5]: 128 mg/L (≈ 322 µM)
